{"source": "paper PMC3441706", "about": "(PLoS ONE, 2012)", "key": {"Colon Cancer cell lines": {"test_system": "Colon Cancer cell lines", "experiment": "NCI-60 DTP human tumor cell line screen (sulphorhodamine B)", "type": "cell-based", "conditions": "7 cell lines, 48 hours incubation", "experimental": "(§1) NVX-412 was included in an anti-cancer activity screen by the National Cancer Institute (NCI). The compound was tested against 59 different human tumor cell lines, representing leukemia, melanoma and cancers of the lung, colon, brain, ovary, breast, prostate, and kidney (for a complete list of cell lines please refer to Shoemaker et al. 2006 [5]). The methodology of this in vitro cancer screen is described in detail on the NCI website (http://dtp.nci.nih.gov/branches/btb/ivclsp.html). Briefly, the human tumor cell lines of the cancer screening panel were grown in RPMI 1640 medium containing 5% FCS and 2 mM L-glutamine in 96-well plates at densities ranging from 5,000 to 40,000 cells/well. After 24 hours the experimental drug was added at 5 concentrations plus control and cells were incubated for additional 48 hours. For determination of the growth-inhibitory effect of the compound a sulphorhodamine B assay was performed that employs a chemical fixation step at the end of drug treatment and a subsequent staining for 10 minutes. After a washing step, absorbance was determined at 515 nm. Three different dose response parameters are then calculated: growth inhibition of 50% (GI50), which is the drug concentration resulting in a 50% reduction in the net protein increase, the drug concentration resulting in total growth inhibition (TGI) and the LC50, indicating a net loss of cells following treatment."}, "[1]": {"test_system": "Non-Small Cell Lung Cancer cell lines", "experiment": "NCI-60 DTP human tumor cell line screen (sulphorhodamine B)", "type": "cell-based", "conditions": "9 cell lines, 48 hours incubation", "experimental": "as §1"}, "Leukemia cell lines": {"test_system": "Leukemia cell lines", "experiment": "NCI-60 DTP human tumor cell line screen (sulphorhodamine B)", "type": "cell-based", "conditions": "6 cell lines, 48 hours incubation", "experimental": "as §1"}, "HT-29 cells [2]": {"test_system": "HT-29 cells", "experiment": "Proliferation kinetics", "type": "cell-based, human", "experimental": "HT-29 cells were plated (2×10^4 cells/well) in 24-well plates. After a recovery period of 24 hours, NVX-412 was added in fresh growth medium to final concentrations of 0, 300 and 1000 nM, respectively. After 24, 48 and 72 hours cell numbers were determined with a Z1 Coulter Particle Counter."}, "[3]": {"test_system": "RKO p53+/+ or p53−/− cells", "experiment": "Determination of p53 status dependency", "type": "cell-based, human", "conditions": "RKO p53+/+ vs p53−/−, 72 hours, viable cell numbers", "experimental": "(§2) The isogenic colon carcinoma cells lines HCT116 p53+/+ or p53−/− and RKO p53+/+ or p53−/− were cultured in 12-well plates. After a recovery period of 24 hours, NVX-412 or Nutlin-3 was added in fresh growth medium at the indicated concentrations. […] After 24 or 72 hours cell numbers were determined with a Beckman Coulter ViCell XR."}, "[4]": {"test_system": "HCT116 p53+/+ or p53−/− cells", "experiment": "Determination of p53 status dependency", "type": "cell-based, human", "conditions": "HCT116 p53+/+ vs p53−/−, 72 hours, viable cell numbers", "experimental": "as §2"}, "all cell lines tested": {"test_system": "all cell lines tested", "experiment": "β-galactosidase staining (cellular senescence)", "type": "cell-based", "conditions": "data not shown"}, "HeLa cells": {"test_system": "HeLa cells", "experiment": "Morphology assay / quantification of cell sizes", "type": "cell-based, human", "conditions": "48 hours treatment", "experimental": "(§3) To investigate potential morphological changes upon treatment with NVX-412, HCT116, HeLa and HT-29 cells were plated in 6-well plates and incubated for up to 72 hours with the indicated concentrations of NVX-412, DMSO as vehicle control and 1 µM Camptothecin (CPT) as a positive control for apoptotic morphology. Control experiments were carried out to ensure that morphological changes are not due to differences in confluency. After 24, 48 and 72 hours pictures were taken with an Olympus IX71 inverted microscope and camera system (Olympus Color View III) at 20× magnification.\n(§4) Cell sizes were quantified using specialized imaging software (ImageJ 1.45d, US NIH, Bethesda, MD, USA). Average areas of all cells present within 5 different fields of view per sample were determined after 48 hours treatment with 0, 0.15 and 1 µM NVX-412."}, "HT-29 cells [5]": {"test_system": "HT-29 cells", "experiment": "Morphology assay / quantification of cell sizes", "type": "cell-based, human", "conditions": "HT-29, 48 hours treatment", "experimental": "as §3, §4"}, "HCT116 cells": {"test_system": "HCT116 cells", "experiment": "Morphology assay / quantification of cell sizes", "type": "cell-based, human", "conditions": "HCT116, 48 hours treatment, 0.15 and 1 µM", "experimental": "as §3, §4"}, "p-p53 (Ser15)": {"test_system": "p-p53 (Ser15)", "experiment": "Immunofluorescence staining of p-p53 (Ser15) in HCT116 cells", "type": "cell-based, human", "conditions": "HCT116, 24 hours", "experimental": "HCT116 and HeLa cells were seeded on glass cover slips in 6-well plates. 24 hours after plating, HCT116 cells were incubated with 0.15, 0.5 and 1 µM NVX-412 and 1 µM CPT for 24 hours for staining of p-p53. For investigating γH2AX, HeLa cells were incubated with 0.21, 0.5 and 1 µM NVX-412 and 1 µM CPT for 3 or 24 hours. Additionally, cells were allowed to recover for 24 hours in normal growth medium after 24 hours of incubation with NVX-412 or CPT (wash-out experiment). After the respective treatments, cells were washed and fixed with 4% methanol-free formaldehyde (Polysciences Inc. Warrington, PA, USA) for 15 minutes at room temperature and then permeabilized with 0.2% Triton X-100/PBS for 2 minutes at room temperature. After blocking with goat serum (5%) in 1% BSA/0.3% Triton X-100/PBS, the respective primary antibody was added and cells were incubated at 4°C overnight. Antibodies used were: mouse p-p53 (Ser15) (Cell Signaling Technology, Danvers, MA, USA) at 1∶100 dilution and mouse p-H2AX (Ser139) (Millipore, Billerica, MA, USA) at 1∶1000 dilution in 1% BSA/PBS, respectively. Cells were then washed 3 times for 10 minutes with 0.25% BSA/0.1% Triton X-100/PBS and incubated with the Alexa Fluor 488 conjugated secondary anti-mouse antibody (1∶1000 in 0.25% BSA/0.1% Triton X-100/PBS) for 1 hour at room temperature in the dark. Cells were washed 3 times for 10 minutes with 0.05% Tween-20/PBS containing Hoechst 33342 (Sigma Aldrich, Vienna, AUT) and mounted with mounting medium (Fluoprep, bioMérieux, Marcy l'Etoile, FRA). Fluorescence was immediately recorded on a Zeiss LSM700 laser scanning microscope."}}}
{"smiles": "O=C(NNc1nc2cc(F)ccc2n2cccc12)c1cnccn1", "note": "[NVX-412, Pyrazine-2-carboxylic acid N’- (7-fluoro-pyrrolo[1,2-α]quinoxalin-4-yl)-hydrazide-oxalic acid co-crystal]", "values": [{"measurement": "IC50", "setting": "Colon Cancer cell lines", "result": 169, "unit": "nM"}, {"measurement": "IC50", "setting": "[1]", "result": 174, "unit": "nM"}, {"measurement": "IC50", "setting": "Leukemia cell lines", "result": 62, "unit": "nM"}, {"measurement": "Proliferation of cells", "setting": "HT-29 cells [2]; HT-29, 300 nM (IC50), after 2 days, compared to untreated control", "result": "significantly decreased"}, {"measurement": "Cell numbers", "setting": "HT-29 cells [2]; HT-29, 1 µM, 3 days of treatment", "result": "cell numbers started to decline below the numbers of cells seeded"}, {"measurement": "p53 status dependency of sensitivity", "setting": "[3]", "result": "the p53 status does not influence the sensitivity to NVX-412"}, {"measurement": "p53 status dependency of sensitivity", "setting": "[4]", "result": "the p53 status does not influence the sensitivity to NVX-412"}, {"measurement": "β-galactosidase staining (senescence)", "setting": "all cell lines tested", "result": "negative in all cell lines tested"}, {"measurement": "Cell sizes", "setting": "HeLa cells", "result": "highly significant increase in cell sizes"}, {"measurement": "Cell sizes", "setting": "HT-29 cells [5]", "result": "highly significant increase in cell sizes"}, {"measurement": "Cell sizes", "setting": "HCT116 cells", "result": "highly significant increase in cell sizes"}, {"measurement": "p-p53 (Ser15) immunofluorescence staining", "setting": "p-p53 (Ser15); 0.5 and 1 µM", "result": "positive staining"}, {"measurement": "p-p53 (Ser15) immunofluorescence staining", "setting": "p-p53 (Ser15); IC50 concentration", "result": "did not lead to p-p53 (Ser15) staining"}]}
